Reference: patent US11371077B2, “High throughput cell-based screening for aptamers” (MeiraGTx UK II Limited, priority 2016, dated 2022)
Where a name gives a salt, the structure may show the parent alone. Read-outs that look alike come from different tables or passages of the source.

Experiments:
Assay type in all cases: cell-based
gdg6-A8 riboswitch = assay: Luciferase reporter assay, gdg6-A8 riboswitch, transfected HEK 293 cells; conditions: for fold induction at 100 µM: Homo sapiens, HEK293, gdg6-A8 riboswitch, Prestwick library compounds at 100 μM, HEK 293
Description: (§1) Riboswitches were constructed as described in PCT/US2016/016234 (in particular Examples 3 to 6), incorporated herein by reference. A truncated human beta-globin intron sequence was synthesized and inserted in the coding sequence of a firefly luciferase gene. A mutant human DHFR exon 2 was synthesized and inserted in the middle of this truncated beta-globin intron sequence using Golden gate cloning strategy. Aptamers including xpt-G/A^1, ydhl-G/A^2, yxj^3, add^4, gdg6-G/A^5 (citations for the aptamers are incorporated herein by reference) were synthesized as oligonucleotides (“oligos”) with 4 nucleotide overhang at the 5′ end that are complementary to two different BsaI sites individually (IDT), annealed and ligated to BsaI-digested mDHFR-Luci-acceptor vector.
(§2) 3.5×10^4 HEK 293 cells were plated in a 96-well flat bottom plate the day before transfection. Plasmid DNA (500 ng) was added to a tube or a 96-well U-bottom plate. Separately, TransIT-293 reagent (Mirus; 1.4 μL) was added to 50 μL Opti-mem I media (Life Technologies), and allowed to sit for 5 minutes at room temperature (RT). Then, 50 μL of this diluted transfection reagent was added to the DNA, mixed, and incubated at RT for 20 min. Finally, 7 μL of this solution was added to a well of cells in the 96-well plate.
(§3) 24 hours after media change, plates were removed from the incubator, and equilibrated to RT for several minutes on a lab bench, then aspirated. Glo-lysis buffer (Promega, 100 μL, RT) was added, and the plates maintained at RT for at least 5 minutes. Then, the well contents were mixed by 50 μL trituration, and 20 μL of each sample was mixed with 20 μL of bright-glo reagent (Promega) that had been diluted to 10% in glo-lysis buffer. 96 wells were spaced on an opaque white 384-well plate. Following a 5 min incubation at RT, luminescence was measured using a Tecan machine with 500 mSec read time. The luciferase activity was expressed as mean relative light unit (RLU)±S.D., and fold induction was calculated as the luciferase activity obtained with guanine treatment divided by luciferase activity obtained without guanine treatment.

ydhl-G8 riboswitch = assay: Luciferase reporter assay, ydhl-G8 riboswitch, transfected HEK 293 cells
Description: (§4) A truncated human beta-globin intron sequence was synthesized and inserted in the coding sequence of a firefly luciferase gene. A mutant human DHFR exon 2 was synthesized and inserted in the middle of this truncated beta-globin intron sequence using Golden gate cloning strategy. Aptamers including xpt-G/A^1, ydhl-G/A^2, yxj^3, add^4, gdg6-G/A^5 (citations for the aptamers are incorporated herein by reference) were synthesized as oligonucleotides (“oligos”) with 4 nucleotide overhang at the 5′ end that are complementary to two different BsaI sites individually (IDT), annealed and ligated to BsaI-digested mDHFR-Luci-acceptor vector.
as §2, with “Separately, TransIT-293 reagent (Mirus; 1.4 μL) was added to 50 μL Opti-mem I media (Life Technologies), and allowed to sit for 5 minutes at room temperature (RT).” left out
as §3

yxj-A6 riboswitch = assay: cells; conditions: yxj-A6 riboswitch, Prestwick library compounds at 100 μM, HEK 293; for fold induction at 100 µM: Homo sapiens, HEK293, read-out: Fold Induction of luciferase activity
Description: as §4, §2
as §3, with “The luciferase activity was expressed as mean relative light unit (RLU)±S.D., and fold induction was calculated as the luciferase activity obtained with guanine treatment divided by luciferase activity obtained without guanine treatment.” left out

add-G6 riboswitch = assay: cells; conditions: add-G6 riboswitch, Prestwick library compounds at 100 μM, HEK 293; for fold induction at 100 µM: Homo sapiens, HEK293, read-out: Fold Induction of luciferase activity
Description: as §4
as §2, with “Separately, TransIT-293 reagent (Mirus; 1.4 μL) was added to 50 μL Opti-mem I media (Life Technologies), and allowed to sit for 5 minutes at room temperature (RT).” left out
as §3, with “The luciferase activity was expressed as mean relative light unit (RLU)±S.D., and fold induction was calculated as the luciferase activity obtained with guanine treatment divided by luciferase activity obtained without guanine treatment.” left out

xpt-G17 riboswitch = assay: Luciferase reporter assay, xpt-G17 riboswitch, transfected HEK 293 cells; conditions: Prestwick library compounds at 100 μM, HEK 293, preliminary screen; for fold induction at 100 µM: Homo sapiens, HEK293, xpt-G17 riboswitch
Description: as §4, §2, §3

gdg6-G8 riboswitch = assay: Luciferase reporter assay, gdg6-G8 riboswitch, transfected HEK 293 cells; conditions: for fold induction at 100 µM: Homo sapiens, HEK293, gdg6-G8 riboswitch, Prestwick library compounds at 100 μM, HEK 293
Description: as §1, §2, §3

add-A6 riboswitch = assay: cells; conditions: add-A6 riboswitch, Prestwick library compounds at 100 μM, HEK 293; for fold induction at 100 µM: Homo sapiens, HEK293, read-out: Fold Induction of luciferase activity
Description: as §1, §2, §3

xpt-A8 riboswitch = assay: cells; conditions: Homo sapiens, HEK293; xpt-A8 riboswitch; Prestwick library compounds at 100 μM; HEK 293; read-out: Fold Induction of luciferase activity
Description: as §1, §2, §3

ydhl-A6 riboswitch = assay: Luciferase reporter assay, ydhl-A6 riboswitch, transfected HEK 293 cells; conditions: for fold induction at 100 µM: Homo sapiens
Description: as §4
as §2, with “Separately, TransIT-293 reagent (Mirus; 1.4 μL) was added to 50 μL Opti-mem I media (Life Technologies), and allowed to sit for 5 minutes at room temperature (RT).” left out
as §3

[1] = HEK293, read-out: Fold Induction of luciferase activity, ydhl-A6 riboswitch, Prestwick library compounds at 100 μM, HEK 293
[2] = HEK293, read-out: Fold Induction of luciferase activity

## CC(=O)c1ccc2c(c1)N(CCCN(C)C)c1ccccc1S2.O=C(O)/C=C\C(=O)O [Acetopromazine maleate salt]
gdg6-A8 riboswitch; 100 µM
  Fold Induction of luciferase activity: 8.6 fold
ydhl-G8 riboswitch; ydhl-G8 riboswitch, Prestwick library compounds at 100 μM, HEK 293
  Fold Induction of luciferase activity: 3.9 fold
yxj-A6 riboswitch
  Fold Induction of luciferase activity: 3.1 fold
add-G6 riboswitch
  Fold Induction of luciferase activity: 5.0 fold
xpt-G17 riboswitch; xpt-G17 riboswitch
  Fold Induction of luciferase activity: 4.5 fold
gdg6-G8 riboswitch; 100 µM
  Fold Induction of luciferase activity: 3.2 fold
add-A6 riboswitch
  Fold Induction of luciferase activity: 3.5 fold

## C=CC[N@@+]12CC[C@@]34c5ccccc5N5/C=C6/[C@H]7C[C@H]8[C@@]9(CC[N@@+]8(CC=C)C/C7=C/CO)c7ccccc7N(/C=C(/[C@@H](C[C@@H]31)/C(=C\CO)C2)[C@H]54)[C@@H]69.[Cl-].[Cl-] [Alcuronium chloride]
add-A6 riboswitch
  Fold Induction of luciferase activity: 4.2 fold

## Cn1cnc([N+](=O)[O-])c1Sc1ncnc2nc[nH]c12 [Azathioprine]
gdg6-A8 riboswitch
  fold induction at 100 µM: 19.9
yxj-A6 riboswitch
  fold induction at 100 µM: 6.6
add-G6 riboswitch
  fold induction at 100 µM: 11.4
xpt-G17 riboswitch
  fold induction at 100 µM: 6.2
gdg6-G8 riboswitch
  fold induction at 100 µM: 16.2
add-A6 riboswitch
  fold induction at 100 µM: 6.5
xpt-A8 riboswitch
  fold induction at 100 µM: 5.9

## O=C(CCCN1CCC(n2c(O)nc3ccccc32)CC1)c1ccc(F)cc1 [Benperidol]
ydhl-A6 riboswitch; [1]
  fold induction at 100 µM: 3.1

## C[C@]12CC[C@H](O)C[C@H]1CC[C@@H]1[C@@H]2C[C@@H](O)[C@]2(C)[C@@H](C3=CC(=O)OC3)CC[C@]12O [Digoxigenin]
ydhl-A6 riboswitch; [1]
  fold induction at 100 µM: 4.5
ydhl-A6 riboswitch; ydhl-A6 riboswitch, Prestwick library compounds at 100 μM, HEK 293, 100 µM
  Fold Induction of luciferase activity: 3.3 fold

## NS(=O)(=O)c1cc2c(cc1Cl)NCNS2(=O)=O [Hydrochlorothiazide]
ydhl-A6 riboswitch; [1]
  fold induction at 100 µM: 3.3

## COC1=C(OC)C(=O)C(CCCCCCCCCCO)=C(C)C1=O [Idebenone]
ydhl-A6 riboswitch; [2]
  fold induction at 100 µM: 3.5
add-G6 riboswitch
  fold induction at 100 µM: 6.7
xpt-G17 riboswitch
  fold induction at 100 µM: 3.3

## CNC1(C)C2CCC(C2)C1(C)C (centres unmarked) [Mecamylamine hydrochloride]
ydhl-A6 riboswitch; [1]
  fold induction at 100 µM: 3.2

## S=c1nc[nH]c2nc[nH]c12 [Mercaptopurine]
gdg6-A8 riboswitch
  fold induction at 100 µM: 17.2
ydhl-G8 riboswitch; Homo sapiens, HEK293, read-out: Fold Induction of luciferase activity
  fold induction at 100 µM: 3.6
yxj-A6 riboswitch
  fold induction at 100 µM: 10
add-G6 riboswitch
  fold induction at 100 µM: 14.3
gdg6-G8 riboswitch
  fold induction at 100 µM: 16.2
add-A6 riboswitch
  fold induction at 100 µM: 15
xpt-A8 riboswitch
  fold induction at 100 µM: 3.4

## NC(=O)C[S+]([O-])C(c1ccccc1)c1ccccc1 (centres unmarked) [Modafinil]
ydhl-A6 riboswitch; [1]
  fold induction at 100 µM: 3.8

## CCOC(=O)Nc1ccc2c(c1)N(C(=O)CCN1CCOCC1)c1ccccc1S2 [Moricizine hydrochloride]
ydhl-A6 riboswitch; [2]
  fold induction at 100 µM: 10.3

## OCCN1CCN(CCCN2c3ccccc3C=Cc3ccccc32)CC1 [Opipramol dihydrochloride]
gdg6-A8 riboswitch
  fold induction at 100 µM: 3.1
add-A6 riboswitch
  fold induction at 100 µM: 4.3

## O=C(O)CCc1nc(-c2ccccc2)c(-c2ccccc2)o1 [Oxaprozin]
ydhl-A6 riboswitch; [1]
  fold induction at 100 µM: 3.4
